# According to patent publication EP3556767A1, “CELL PENETRATING PEPTIDES” (Universidade De Santiago De Compostela, priority 2018, dated 2019):
# Where a SMILES comes first, the peptide text is derived from it. The star is where a group is joined. 5TAMRA = CN(C)c1ccc2c(c1)Oc1cc(N(C)C)ccc1C21OC(=O)c2cc(C(=O)*)ccc21; X1 = O=C(CON=CCO[C@H]1O[C@H](CO)[C@@H](O)[C@H](O)[C@@H]1O)*; X2 = CC(C)=NOCC(=O)*; Ahx = NCCCCCC(=O)O
# Legend:
# HeLa cells [1] = experiment: Viability in the presence of saporin (MTT); type: cell-based; conditions: up to 30 µM, 1 h incubation, Figure 9
# Protocol: Saporin (253 aa, 28 kDa) is a toxic protein from the group of the ribosome-inactivating proteins (RIP), which is not capable of reaching the cytosol by itself, although it can be passively internalized by pinocytosis if it is found in the culture medium, being retained in endosomes. Incubation of the cells with this protein in the presence of an endosomolytic agent causes the release of the protein to the cytosol and cell death.
# For the experiment, HeLa cells were incubated in a 96-well plate with 10 µg/mL of saporin, and increasing concentrations of the P8 and R8 acetylated peptides.
# The cells were co-incubated with the protein and peptide for 1 h in culture medium without serum or antibiotics, at which time the compounds were removed, washed and complete medium was added for 6 h, to allow the maturation of the endosomes and the escape of the toxin. At that time, MTT (tetrazolium salt) was added, cells were further incubated for 3 h, and the medium removed before solubilizing the formazan salt with DMSO. This viability test measures the reduction of MTT to formazan by mitochondrial activity, which can then be quantified by absorbance.
# HeLa cells [2] = experiment: Cell transport experiments (fluorescence microscopy, co-localization); type: cell-based; conditions: for transport of ConA: ConA labelled with Alexa Fluor-647
# Protocol: HeLa cells growing on four chamber glass bottom dishes were washed with HEPES-Krebs-Ringer (HKR) buffer (5 mM HEPES, 137 mM NaCl, 2.68 mM KCI, 2.05 mM MgCl2, 1.8 mM CaCl2, pH 7.4) and nuclei were stained by incubation with 1 µM Hoechst 33342 in HKR for 30 min. The CPP and protein were diluted in HKR and incubated for 7 min at room temperature to allow the formation of the complexes. Cells were washed with HKR and incubated with the complexes for another 30 min. Cells were washed again to remove excess peptide before performing epifluorescence microscopy using a Nikon Eclipse Ti-E inverted microscope or confocal microscopy with a Leica SP5 microscope. Images were analyzed with ImageJ and the co-localization parameters (Manders coefficients) were calculated using the Coloc2 plugin selecting the Costes method of threshold regression.
# endosomes = experiment: Dextran escape from endosomes; type: cell-based; conditions: dextran 250 µg/ml; Figure 11
# Protocol: Dextran is a polysaccharide (in this case labeled with a green fluorescent probe) known to internalize cells through the endocytic pathway. Thus, if the CPPs of the invention are capable of inducing release of dextrane from endosomes into the cytosol, the cell will display diffuse green fluorescence. The experiment was run by incubating dextran (250 µg/ml) in the presence of 5 µM of a CPP: (i) P8 marked with TAMRA, (ii) acetylated P8, and (iii) R8 as comparison.
# [3] = test system: HeLa cells stably transfected with a plasmid carrying the LoxP-DsRED-STOP-LoxP-eGFP insert; experiment: Cre recombinase protein cytosolic delivery (Cre Reporter system); type: cell-based; conditions: 1 µM Cre recombinase protein
# Protocol: In order to further test the capabilities of the CPPs of the invention to release macromolecules into the cytosol, a Cre recombinase delivery assay was done in the presence of P8. HeLa cells stably transfected with a plasmid carrying the LoxP-DsRED-STOP-LoxP-eGFP insert (Cre Reporter system) were incubated with 1 µM Cre recombinase protein and CPPs P8 or R8 at different concentrations.
# These cells express normally the dsRED protein (red fluorescence), but when the Cre recombinase protein removes the dsRED ORF by recombination, the eGFP gene (green fluorescence) is expressed instead. Thus, the percentage of cells expressing eGFP can be used as a measure of the percentage of cells where the Cre Recombinase had been effectively released into the cytosol.
# [4] = Circular dichroism, percentage of helicity; type: physicochemical; conditions: 40°C; for % Helicity in Liposomes: egg yolk phosphatidylcholine liposomes
# Protocol: Circular Dichroism (CD) measurements were performed with a Jasco J-1100 CD Spectrometer equipped with a Jasco MCB-100 Mini Circulation Bath for temperature control.
# Circular dichroism measurements were carried out with the following settings: acquisition range: 300-190 nm; band width: 1.0 nm; accumulation: 3 scans; data pitch: 1 nm; CD scale 200 mdeg/1.0 dOD; D.I.T. (Data Integration Time): 1 s; scanning mode: continuous; scanning speed: 200 nm/min. Measurements were done from 10 °C to 60 °C (data interval: 10 °C; temp. gradient 5 °C/min) in a quartz cell of 0.2 cm path length at a final volume of 0.5 mL (H2O or TFE) with a final peptide concentration of 200 µM.
# The results are expressed as the mean residue molar ellipticity [θ]MRt with units of degrees·cm^2.dmol^-1 and calculated using the equation S1.
# The percentage of helicity was calculated using the equation S2. For the measurements in liposomes, samples were prepared by drying under reduced pressure L-α-phosphatidylcholine (16.7 µL, 25 mg/mL solution in CHCl3) and peptide (300 µL, 100 µM) in TFE to obtain a ratio lipid/peptide of 18:1 in a 10 mL round bottomed flask. The mixture was concentrated in a rotary evaporator to dryness, forming a film. The lipid/peptide mixture were suspended in HKR buffer (300 µL) to a final peptide concentration 100µM and sonicated for 45 min until a clear solution was obtained. Spectra were recorded in a 0.2 cm path length quartz cell. [formula]
# Equation S1: Formula to calculate the ellipticity. θ is the ellipticity (mdeg), C is the peptide concentration (M) and I is the cell path length (cm). helicity % = (θMRt222nm−2340)/(30300) × 100 [formula]
# Equation S2: Formula to calculate the percent of helicity in where the molar ellipticity at 222 nm is an absolute value.
# HeLa cells [5] = experiment: Quantification of the uptake by flow cytometry; type: cell-based; conditions: TAMRA labelled peptides, 1, 3, 5, 7, 10 µM; Figure 3
# Protocol: For internalization standard assays we measured the amount of peptide fluorescence in cells by flow cytometry. Briefly, semiconfluent monolayers of HeLa cells seeded the day before were washed twice with HKR before incubation with different concentrations (1, 3, 5, 7, 10 µM) of TAMRA labelled peptides diluted in cell culture medium without serum for 1 hour at 37 °C . Then, cells were trypsinized with 100 µL of Trypsin-EDTA (Gibco) for 10 min at 37 °C, and trypsin neutralized with 100 µL of 2 % FBS in PBS with 5 mM EDTA. Pipetting broke cell clumps and the analysis was done in a Guava easyCyte™ cytometer. TAMRA levels were determined by excitation at 532 nm and detection at 575/25 nm. For the analysis, cells with typical FSC and SSC parameters were selected, and median fluorescence intensity was calculated for each sample. Data analysis was performed with InCyte software included in GuavaSoft 3.2 (Millipore).
# The results of uptake of CPP P8 in HeLa, A-549 and SF9 are depicted in Figure 5: Uptake quantification by flow cytometry in three different cell lines: HeLa cells, A549 cells and Sf9 cells. Data points were collected in triplicate at six different concentrations (0, 1, 3, 5, 7, 10 µM). Cells were treated in DMEM (-) (HeLa, A549), or Sf-900-II (-) (Sf9) for 1 hour prior to trypsinization and cytometry quantification. Error bars indicate SD of three replicates.
# [6] = co-localization of peptide and ConA
compound,measurement,setting,value
"CC(C)C[C@H](NC(=O)c1ccc2c(c1)C(=O)OC21c2ccc(N(C)C)cc2Oc2cc(N(C)C)ccc21)C(=O)N[C@@H](CCCNC(=N)N)C(=O)N[C@@H](C)C(=O)N[C@@H](CC(C)C)C(=O)N[C@@H](C)C(=O)N[C@@H](C)C(=O)N[C@@H](CC(C)C)C(=O)N[C@@H](C)C(=O)N[C@@H](CCCNC(=N)N)C(=O)N[C@@H](C)C(=O)N[C@@H](C)C(=O)N[C@@H](C)C(=O)N[C@@H](C)C(=O)N[C@@H](C)C(=O)N[C@@H](C)C(=O)N[C@@H](CCCNC(=N)N)C(N)=O [P8, TmL R ALAALA R A6 R] (5TAMRA-LRALAALARAAAAAAR-NH2)","toxicity to HeLa cells, peptide alone",HeLa cells [1],little or no toxicity
"CC(C)=NOCC(=O)NCCCC[C@H](NC(=O)[C@H](CCCNC(=N)N)NC(=O)CCCCCNC(=O)c1ccc2c(c1)C(=O)OC21c2ccc(N(C)C)cc2Oc2cc(N(C)C)ccc21)C(=O)N[C@@H](CC(C)C)C(=O)N[C@@H](CCCNC(=N)N)C(=O)N[C@@H](CCCNC(=N)N)C(=O)N[C@@H](CC(C)C)C(=O)N[C@@H](CC(C)C)C(=O)N[C@@H](CCCNC(=N)N)C(=O)N[C@@H](CCCNC(=N)N)C(=O)N[C@@H](CC(C)C)C(=O)N[C@@H](CCCCNC(=O)CON=C(C)C)C(=O)N[C@@H](CCCNC(=N)N)C(=O)N[C@@H](CC(C)C)C(N)=O [TmP(Acetone)2, reference compound] ({5TAMRA-Ahx}-RK(X2)LRRLLRRLK(X2)RL-NH2)",transport of ConA,HeLa cells [2],did not complex or transport ConA
CC(C)C[C@H](NC(=O)[C@H](CCCNC(=N)N)NC(=O)[C@H](CCCCNC(=O)CON=CCO[C@H]1O[C@H](CO)[C@@H](O)[C@H](O)[C@@H]1O)NC(=O)[C@H](CC(C)C)NC(=O)[C@H](CCCNC(=N)N)NC(=O)[C@H](CCCNC(=N)N)NC(=O)[C@H](CC(C)C)NC(=O)[C@H](CC(C)C)NC(=O)[C@H](CCCNC(=N)N)NC(=O)[C@H](CCCNC(=N)N)NC(=O)[C@H](CC(C)C)NC(=O)[C@H](CCCCNC(=O)CON=CCO[C@H]1O[C@H](CO)[C@@H](O)[C@H](O)[C@@H]1O)NC(=O)[C@H](CCCNC(=N)N)NC(=O)CCCCCNC(=O)c1ccc2c(c1)C(=O)OC21c2ccc(N(C)C)cc2Oc2cc(N(C)C)ccc21)C(N)=O [TmP(Man)2] ({5TAMRA-Ahx}-RK(X1)LRRLLRRLK(X1)RL-NH2),transport of ConA,HeLa cells [2],the ConA cellular uptake was observed
same,Manders coefficients (peptide and protein co-localization),HeLa cells [2]; approximate value given in the text,~0.6
same,Manders' tM1 (Peptide),HeLa cells [2]; [6],0.66
same,Manders' tM2 (Protein),HeLa cells [2]; [6],0.63
"Ac-LRALAALARAAAAAAR-NH2 [acetylated P8, AcL R ALAALA R A6 R]",concentration at which the peptide starts to release the dextran into the cytosol,endosomes,10 µM
same,peptide concentration at the maximum percentage of eGFP expressing cells,[3],10 µM
same,maximum percentage of eGFP expressing cells,[3]; Figure 10,35%
TmHexA R AALLAA R AALA3 R [P3],% Helicity in water,[4],21.7%
same,% Helicity in Liposomes,[4],12.7%
TmHexA R ALAALA R ALA4 R [P6],uptake in living HeLa cells,HeLa cells [5],perform better in the uptake test
same,% Helicity in water,[4],35.1%
same,% Helicity in Liposomes,[4],29.9%
TmHexL R A5L R A5L R [P5],uptake in living HeLa cells,HeLa cells [5],perform better in the uptake test
same,% Helicity in water,[4],19.3%
same,% Helicity in Liposomes,[4],29.5%
